According to US20230192701A1, “BICYCLIC KINASE INHIBITORS AND USES THEREOF” (iOmx Therapeutics AG, priority 2020, published 2023):

What was measured:
[1] = biological target: SIK2 (Homo sapiens, UniProt Q9H0K1); experiment: radiometric protein kinase assay (33PanQinase Activity Assay), SIK2; format: biochemical; conditions: for IC50: ATP 1.0 μM, substrate RBER-CHKtide; for inhibiting SIK2 compared to PY1: in words
Method: (§1) The IC50s of the compounds against the SIK family of protein-serine/threonine kinases (SIK2 and SIK3) were determined as followed. Briefly, a radiometric protein kinase assay (33PanQinase® Activity Assay) was used for measuring the kinase activity of the two protein kinases. The kinase assays were performed in 96-well FlashPlates™ from PerkinElmer (Boston, Mass., USA) in a 50 uL reaction volume. The reaction cocktail was pipetted in four steps in the following order: • […] (standard buffer/[gamma-33P]-ATP) • 10 uL of ATP solution (in water) • 5 uL of test compound (in 10% DMSO) • 20 uL enzyme/substrate mix
(§2) The following amounts of enzyme and applicable substrate were used per well:
(§3) The reaction cocktails were incubated at 30 °C for 60 minutes. The reaction was stopped with 50 uL of 2% (v/v) H3PO4, plates were aspirated and washed two times with 200 μL 0.9% (w/v) NaCl. Incorporation of 33Pi was determined with a microplate scintillation counter (Microbeta, Wallac). All assays were performed with a BeckmanCoulter/SAGIAN™ Core System.

[2] = biological target: SIK3 (Homo sapiens, UniProt Q9Y2K2); experiment: radiometric protein kinase assay (33PanQinase Activity Assay), SIK3; format: biochemical; conditions: for IC50: ATP 1.0 μM, substrate RBER-CHKtide; for inhibiting SIK3 compared to PY1 / selectivity towards SIK3 over SIK2: in words
Method: as §1, §2, §3

[3] = system: MC38 tumour cells; experiment: TNF-sensitised cell viability assay (CellTiter-Glo), MC38; format: cell-based, murine; conditions: for IC50: Mus musculus, MC-38, read-out: MC38 IC50 (at 100 ng/ml rMuTNF), 100 ng/ml rMuTNF, 72 h
Method: (§4) Cell viability of HCT116 tumour cells was measured using the CellTiter-Glo (CTG) luminescent cell viability assay (Promega, Madison, USA) according to the manufacturer's protocol. In short, 1×10^3 HCT116 cells were seeded in a 384-well plate for 24 h and subsequently treated with different concentrations of compounds and 10 ng/ml rHuTNF for 72 h at 37° C. and 5% CO2. After incubation, CTG reagent was added to the wells and cells were lysed for 10 min. Read-out was performed using the Tecan reader with 0.1 sec counting time. TNF-induced cell killing in human PANC1 and murine MC38 tumour cells was measured analogously to the assay in human HCT116 cells, except that for the PANC1 assay 100 ng/ml rHuTNF and for the MC38 assay 100 ng/ml rMuTNF were used.

[4] = system: PANC1 tumour cells; experiment: TNF-sensitised cell viability assay (CellTiter-Glo), PANC1; format: cell-based, human; conditions: for IC50: Homo sapiens, PANC-1, read-out: PANC IC50 (at 100 ng/ml rHuTNF), 100 ng/ml rHuTNF, 72 h; for sensitisation of PANC tumour cells to the cytotoxic effects of TNF compared to PY1: in words
Method: as §4

[5] = system: HCT116 tumour cells; experiment: TNF-sensitised cell viability assay (CellTiter-Glo), HCT116; format: cell-based, human; conditions: for IC50: Homo sapiens, HCT-116, read-out: HCT116 IC50 (at 10 ng/ml rHuTNF), 10 ng/ml rHuTNF, 72 h; for sensitisation of HCT116 tumour cells to the cytotoxic effect of TNF compared to PY1: in words
Method: as §4

[6] = biological target: 335 wild-type protein kinases; experiment: single-point inhibition assays, residual activity (ProQinase Kinase Profiler); format: biochemical; conditions: single-point 0.1 uM and 1 uM, 335 kinases
Method: Several compounds of Formula (I) described herein were also tested in single-point (0.1 uM and 1 uM) inhibition assays over a diverse set of 335 wild-type protein (ProQinase “Kinase Profiler”; ProQinase, Freiburg, Germany), in which the residual activity of each kinase was determined. […] Secondly, the residual activity of each kinase was compared to other compounds tested (in particular, against the prior art compounds PY1) by use of scatter plots.

Chain of SIK3 (Q9Y2K2 whole entry): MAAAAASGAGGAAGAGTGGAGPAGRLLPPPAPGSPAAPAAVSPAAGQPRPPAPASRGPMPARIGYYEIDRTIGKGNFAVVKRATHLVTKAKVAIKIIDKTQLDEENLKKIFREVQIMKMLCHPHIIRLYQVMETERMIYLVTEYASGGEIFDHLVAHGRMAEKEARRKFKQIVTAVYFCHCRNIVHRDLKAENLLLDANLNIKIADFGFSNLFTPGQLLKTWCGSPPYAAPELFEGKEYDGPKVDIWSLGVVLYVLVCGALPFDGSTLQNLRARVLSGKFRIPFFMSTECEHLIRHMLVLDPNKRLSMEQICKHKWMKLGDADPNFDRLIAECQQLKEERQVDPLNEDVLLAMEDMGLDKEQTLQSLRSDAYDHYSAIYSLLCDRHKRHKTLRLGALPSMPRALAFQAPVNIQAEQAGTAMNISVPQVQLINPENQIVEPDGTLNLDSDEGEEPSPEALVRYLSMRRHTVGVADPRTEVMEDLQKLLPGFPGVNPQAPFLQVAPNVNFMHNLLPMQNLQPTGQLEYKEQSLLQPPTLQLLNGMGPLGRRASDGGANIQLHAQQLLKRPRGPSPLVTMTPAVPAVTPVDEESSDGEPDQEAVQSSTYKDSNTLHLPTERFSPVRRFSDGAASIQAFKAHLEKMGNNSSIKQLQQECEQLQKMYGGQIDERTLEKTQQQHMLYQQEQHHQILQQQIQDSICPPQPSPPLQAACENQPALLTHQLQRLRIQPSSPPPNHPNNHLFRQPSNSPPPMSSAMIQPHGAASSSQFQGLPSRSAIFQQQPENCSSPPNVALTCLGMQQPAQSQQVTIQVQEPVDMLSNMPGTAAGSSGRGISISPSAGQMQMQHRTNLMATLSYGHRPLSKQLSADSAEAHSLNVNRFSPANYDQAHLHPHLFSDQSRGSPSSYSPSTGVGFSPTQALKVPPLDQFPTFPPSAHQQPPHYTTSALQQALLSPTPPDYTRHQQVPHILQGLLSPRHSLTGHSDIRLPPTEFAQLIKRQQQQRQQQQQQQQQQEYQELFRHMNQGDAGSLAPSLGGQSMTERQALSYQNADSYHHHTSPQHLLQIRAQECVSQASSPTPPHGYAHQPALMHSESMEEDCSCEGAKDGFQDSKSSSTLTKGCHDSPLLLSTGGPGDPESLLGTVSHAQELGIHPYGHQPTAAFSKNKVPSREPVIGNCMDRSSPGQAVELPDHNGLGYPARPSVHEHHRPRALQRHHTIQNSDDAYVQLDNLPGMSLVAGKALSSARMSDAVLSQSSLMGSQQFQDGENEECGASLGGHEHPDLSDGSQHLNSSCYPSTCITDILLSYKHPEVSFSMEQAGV
Chain of SIK2 (Q9H0K1 whole entry): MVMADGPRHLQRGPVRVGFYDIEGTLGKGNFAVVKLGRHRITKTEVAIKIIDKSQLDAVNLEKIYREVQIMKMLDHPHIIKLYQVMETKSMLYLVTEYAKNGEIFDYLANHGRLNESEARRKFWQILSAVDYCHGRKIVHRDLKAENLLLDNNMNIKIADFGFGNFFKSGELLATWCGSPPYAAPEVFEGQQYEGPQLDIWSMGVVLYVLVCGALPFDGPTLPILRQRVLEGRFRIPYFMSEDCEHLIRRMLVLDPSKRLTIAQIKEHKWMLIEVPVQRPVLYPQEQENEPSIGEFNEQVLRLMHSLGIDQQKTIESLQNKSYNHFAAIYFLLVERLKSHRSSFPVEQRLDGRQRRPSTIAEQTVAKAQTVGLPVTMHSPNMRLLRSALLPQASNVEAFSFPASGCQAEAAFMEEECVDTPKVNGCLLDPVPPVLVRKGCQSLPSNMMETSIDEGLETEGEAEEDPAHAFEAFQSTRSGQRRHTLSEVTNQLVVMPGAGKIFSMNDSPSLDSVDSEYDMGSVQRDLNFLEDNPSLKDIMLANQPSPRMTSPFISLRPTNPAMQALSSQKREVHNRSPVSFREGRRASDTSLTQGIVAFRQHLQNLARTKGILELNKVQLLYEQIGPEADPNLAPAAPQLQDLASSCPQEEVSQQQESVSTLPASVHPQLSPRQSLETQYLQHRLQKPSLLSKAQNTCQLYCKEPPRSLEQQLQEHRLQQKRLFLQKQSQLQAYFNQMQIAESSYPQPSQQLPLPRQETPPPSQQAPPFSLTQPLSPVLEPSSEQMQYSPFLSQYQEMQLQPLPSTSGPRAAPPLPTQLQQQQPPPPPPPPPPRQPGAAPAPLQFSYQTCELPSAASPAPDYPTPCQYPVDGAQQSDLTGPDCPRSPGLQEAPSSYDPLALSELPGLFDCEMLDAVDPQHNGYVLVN

Row | SMILES | IC50 [1] | IC50 [2] | IC50 [3] | sensitisation of MC38 tumour cells to the cytotoxic effect of TNF ([3]; in words) | IC50 [4] | sensitisation of PANC tumour cells to the cytotoxic effects of TNF compared to PY1 [4] | IC50 [5] | sensitisation of HCT116 tumour cells to the cytotoxic effect of TNF compared to PY1 [5] | inhibiting SIK2 compared to PY1 [1] | inhibiting SIK3 compared to PY1 [2] | kinases inhibited less strongly than by PY1 [6] | kinases inhibited more strongly than by PY1 [6] | overall kinase profile compared to prior art compound PY1 [6] | selectivity towards SIK3 over SIK2 [2]
1 | COc1ccc(N2C(=O)N(c3c(C)nn(C)c3C)Cc3cnc(Nc4ccc(C5CCN(C)CC5)cc4OC)nc32)nc1 [AA4, 7-((2-methoxy-4-(l-methylpiperidin-4-yl)phenyl)amino)-1-(5-methoxypyridin-2-yl)-3-(1,3,5-trimethyl-lH-pyrazol-4-yl)-3,4-dihydropyrimido[4,5-d]pyrimidin-2(1H)-one] | 5000 to 10000 nM | > 10000 nM |  |  |  |  |  |  |  |  |  |  |  | 
2 | COc1ccc(N2C(=O)N(c3c(CF)csc3Cl)Cc3cnc(Nc4ccc(C5CCN(C)CC5)cc4OC)nc32)nc1 [AA7, 3-(2-chloro-4-(fluoromethyl)thiophen-3-yl)-7-((2-methoxy-4-(l-methylpiperidin-4-yl)phenyl)amino)-1-(5-methoxypyridin-2-yl)-3,4-dihydropyrimido[4,5-d]pyrimidin-2(1H)-one] | 50 to 100 nM | 100 to 200 nM | 100 to 500 nM | surprisingly potent at sensitising cells to the cytotoxic effect of TNF | 100 to 500 nM | stronger effect than PY1 | < 100 nM | much stronger effect compared to the prior art compound PY1 |  |  |  |  |  | 
3 | COc1ccc(N2C(=O)N(c3c(CF)csc3Cl)Cc3cnc(Nc4ccc(C5CC(C)N(C)C(C)C5)cc4)nc32)nc1 (stereo not drawn) [AA8, 3-(2-chloro-4-(fluoromethyl)thiophen-3-yl)-1-(5-methoxypyridin-2-yl)-7-((4-(l,2,6-trimethylpiperidin-4-yl)phenyl)amino)-3,4-dihydropyrimido[4,5-d]pyrimidin-2(lH)-one] | < 50 nM | < 50 nM | 500 to 1000 nM |  | 100 to 500 nM | stronger effect than PY1 | < 100 nM | much stronger effect compared to the prior art compound PY1 | superior in inhibiting SIK2 and SIK3 compared to PY1 | superior in inhibiting SIK2 and SIK3 compared to PY1 |  |  |  | 
4 | COc1ccc(N2C(=O)N(c3c(CF)csc3Cl)Cc3cnc(Nc4ccc(C5CCN(C)C(C)C5)cc4)nc32)nc1 (stereo not drawn) [AA9, 3-(2-chloro-4-(fluoromethyl)thiophen-3-yl)-7-((4-(l,2-dimethylpiperidin-4-yl)phenyl)amino)-1-(5-methoxypyridin-2-yl)-3,4-dihydropyrimido[4,5-d]pyrimidin-2(1H)-one] | < 50 nM | < 50 nM | 500 to 1000 nM |  | 500 to 1000 nM |  | < 100 nM | much stronger effect compared to the prior art compound PY1 | superior in inhibiting SIK2 and SIK3 compared to PY1 | superior in inhibiting SIK2 and SIK3 compared to PY1 |  |  |  | 
5 | COc1ccc(N2C(=O)N(c3c(CF)csc3Cl)Cc3cnc(Nc4ccc(C5CCN(C)CC5)cc4OC)nc32)cc1 [AA10, 3-(2-chloro-4-(fluoromethyl)thiophen-3-yl)-7-((2-methoxy-4-(1-methylpiperidin-4-yl)phenyl)amino)-1-(4-methoxyphenyl)-3,4-dihydropyrimido[4,5-d]pyrimidin-2(1H)-one] | 50 to 100 nM | 100 to 200 nM | 1000 to 1500 nM |  | 1000 to 1500 nM |  | 1000 to 1500 nM |  |  |  |  |  |  | 
6 | COc1cc(C2CCN(C)CC2)ccc1Nc1ncc2c(n1)N(C)C(=O)N(c1c(CF)csc1Cl)C2 [AA11, 3-(2-chloro-4-(fluoromethyl)thiophen-3-yl)-7-((2-methoxy-4-(1-methylpiperidin-4-yl)phenyl)amino)-1-methyl-3,4-dihydropyrimido[4,5-d]pyrimidin-2(1H)-one] | 100 to 200 nM | < 50 nM | 1000 to 1500 nM |  | > 1500 nM |  | > 1500 nM |  |  |  | BMX, TEC and in particular BTK | BRAF, NEK2, PRK2, PKC, and in particular KIT, RIPK2, ABL2 and PDGF-alpha | substantially different profile of inhibition of the kinases compared to the prior art compound PY1 | increased selectively towards SIK3 over SIK2
7 | COCCN1C(=O)N(c2c(CF)csc2Cl)Cc2cnc(Nc3ccc(C4CCN(C)CC4)cc3OC)nc21 [AA12, 3-(2-chloro-4-(fluoromethyl)thiophen-3-yl)-7-((2-methoxy-4-(1-methylpiperidin-4-yl)phenyl)amino)-1-(2-methoxyethyl)-3,4-dihydropyrimido[4,5-d]pyrimidin-2(1H)-one] | < 50 nM | < 50 nM | 1000 to 1500 nM |  |  |  | > 1500 nM |  | superior in inhibiting SIK2 and SIK3 compared to PY1 | superior in inhibiting SIK2 and SIK3 compared to PY1 |  |  |  | increased selectively towards SIK3 over SIK2
8 | COc1ccc(N2C(=O)N(c3c(C(F)F)csc3Cl)Cc3cnc(Nc4ccc(C5CCN(C)CC5)cc4OC)nc32)nc1 [AA13, 3-(2-chloro-4-(difluoromethyl)thiophen-3-yl)-7-((2-methoxy-4-(1-methylpiperidin-4-yl)phenyl)amino)-1-(5-methoxypyridin-2-yl)-3,4-dihydropyrimido[4,5-d]pyrimidin-2(1H)-one] | 100 to 200 nM | 100 to 200 nM | 1000 to 1500 nM |  | > 1500 nM |  | > 1500 nM |  |  |  |  |  |  | increased selectively towards SIK3 over SIK2
